Test results taken from patent US12516288B2, “Method for producing enteric neural precursors” (Kyoto University, priority 2018, dated 2026).
Structures can show the parent of a compound that is named as a salt. Where two headings read alike, the source gives them in different places.

Experiments:
[1] = test system: artificial intestinal tract formed from an intestinal organoid; assay: Organ bath assay: contractile and relaxant responses of artificial intestinal tract to electrical stimulation; parameters: species or system human
[2] = test system: vagal neural crest cells; assay: Study on composition of enteric neural precursor medium (NRG1 and/or GDNF not added); type: cell-based, human; details: for cell proliferation: enteric neural precursor medium without the named factor (factor-free conditions)
Method: The medium was aspirated and replaced with PBS. Then, the cells were detached using a cell scraper. The detached cell mass was dissociated by pipetting in Accutase® (Innovative Cell Technologies, Inc.). Then, MACS® Buffer (Miltenyi Biotec) was added thereto, and the cells were prepared into single cells through a 40 µm cell strainer. The obtained cell suspension was centrifuged at 300×g for 3 minutes. Then, the supernatant was removed, and the cells were suspended in an enteric neural precursor medium. The enteric neural precursor medium used was a mixture of solutions A and B of Stem Fit® AK03N containing 10 μM SB431542 (FUJIFILM Wako Pure Chemical Corp.), 1 μM CHIR99021 (Axon MedChem), 1 μM retinoic acid (FUJIFILM Wako Pure Chemical Corp.), 100 ng/mL neuregulin 1 (NRG1) (PeproTech, Inc.) and […] glial cell-derived neurotrophic factor (GDNF) (FUJIFILM Wako Pure Chemical Corp.). For adherent culture, Matrigel® (Corning Inc.) was added at 2% to the cell suspension, which was then cultured using a multiwell plate (Corning Inc.). For suspension culture, a multiwell plate (Corning Inc.) treated for low cell adhesion was used. The culture in both cases was carried out at 37° C. under 5% CO2.
Vagal neural crest cells were cultured in an enteric neural precursor medium under the same conditions as in Test Example 4 except that NRG1 and/or GDNF was not added to the enteric neural precursor medium. The cells were observed under a fluorescence microscope (BZ-X700, Keyence Corp.). Also, flow cytometry analysis was conducted by the same method as in Test Example 5.

COC(=O)[C@@H](N)CCCN=C(N)N[N+](=O)[O-].Cl [NG-nitro-L-arginine methyl ester hydrochloride]
relaxant response dependent on electrical stimulation ([1]; after atropine, phenoxybenzamine, propranolol, concentration not given): disappeared

CN1[C@@H]2CC[C@H]1C[C@@H](OC(=O)C(CO)c1ccccc1)C2 (some centres unmarked) [atropine sulfate monohydrate]
contractile response to electrical stimulation [1]: partially canceled

CC(COc1ccccc1)N(CCCl)Cc1ccccc1 (centres unmarked) [phenoxybenzamine hydrochloride]
contractile response to electrical stimulation [1]: partially canceled

CC(C)NCC(O)COc1cccc2ccccc12 (centres unmarked) [propranolol hydrochloride]
contractile response to electrical stimulation ([1]; addition of 10 μM, strip of artificial intestinal tract in Krebs solution): partially canceled

NC1=N[C@H](O)[C@H]2[C@H]3O[C@]4(O)O[C@@H]([C@@H](O)[C@@]2(N1)[C@@H]4O)[C@]3(O)CO [tetrodotoxin]
cancelation of the contractile response by atropine, phenoxybenzamine or propranolol [1]: disappeared

B1: GDNF: factor encoded by GDNF gene; acts as an agonist of GFRα1 and RET (protein, UniProt P39905 78-211, looked up)
Glial cell line-derived …: SPDKQMAVLPRRERNRQAAAANPENSRGKGRRGQRGKNRGCVLTAIHLNVTDLGLGYETKEELIFRYCSGSCDAAETTYDKILKNLSRNRRLVSDKVGQACCRPIAFDDDLSFLDDNLVYHILRKHSAKRCGCI
cell proliferation [2]: slower than that under the conditions involving GDNF

B2: NRG1: EGF-like growth factor encoded by NRG1 gene; activates downstream signaling by binding to ERBB3 and ERBB4 (protein, listed as Homo sapiens)
chain: MSERKEGRGKGKGKKKERGSGKKPESAAGSQSPALPPRLKEMKSQESAAGSKLVLRCETSSEYSSLRFKWFKNGNELNRKNKPQNIKIQKKPGKSELRINKASLADSGEYMCKVISKLGNDSASANITIVESNEIITGMPASTEGAYVSSESPIRISVSTEGANTSSSTSTSTTGTSHLVKCAEKEKTFCVNGGECFMVKDLSNPSRYLCKCPNEFTGDRCQNYVMASFYKHLGIEFMEAEELYQKRVLTITGICIALLVVGIMCVVAYCKTKKQRKKLHDRLRQSLRSERNNMMNIANGPHHPNPPPENVQLVNQYVSKNVISSEHIVEREAETSFSTSHYTSTAHHSTTVTQTPSHSWSNGHTESILSESHSVIVMSSVENSRHSSPTGGPRGRLNGTGGPRECNSFLRHARETPDSYRDSPHSERYVSAMTTPARMSPVDFHTPSSPKSPPSEMSPPVSSMTVSMPSMAVSPFMEEERPLLLVTPPRLREKKFDHHPQQFSSFHHNPAHDSNSLPASPLRIVEDEEYETTQEYEPAQEPVKKLANSRRAKRTKPNGHIANRLEVDSNTSSQSSNSESETEDERVGEDTPFLGIQNPLAASLEATPAFRLADSRTNPAGRFSTQEEIQARLSSVIANQDPIAV
cell number necessary for conducting flow cytometry ([2]; enteric neural precursor medium without the named factor): not obtained | cell proliferation [2]: very slow
